{"source": "paper PMC3390344", "about": "“Antibacterial Activity and Mechanism of a Scorpion Venom Peptide Derivative In Vitro and In Vivo” (PLoS ONE, 2012)", "key": {"B. thuringiensis AB92037": {"test_system": "B. thuringiensis AB92037", "assay": "MIC, broth microdilution (CLSI)", "format": "cell-based, Bacillus thuringiensis", "details": "B. thuringiensis AB92037, Gram-positive, 96-well", "protocol": "(§1) S. aureus AB94004, S. aureus ATCC 25923, E. coli AB94012, E. coli ATCC 25922, Pseudomonas aeruginosa AB93066, Bacillus thuringiensis AB92037, Bacillus subtilis AB91021, and Micrococcus luteus AB93113 were purchased from the China Center of Type Culture Collection (CCTCC).\n(§2) The MIC was determined via a microdilution assay in 96-well microtiter plates according to the broth microdilution guideline of Clinical and Laboratory Standards Institute (CLSI)."}, "E. coli AB94012 [1]": {"test_system": "E. coli AB94012", "format": "cell-based", "details": "E. coli AB94012, Gram-negative; broth microdilution, 96-well", "protocol": "These peptides were used to determine the inhibitory activities against the representative Gram-positive bacteria S. aureus AB94004 and the representative Gram-negative bacteria E. coli AB94012.\nas §1, §2"}, "P. aeruginosa AB93066": {"test_system": "P. aeruginosa AB93066", "assay": "MIC, broth microdilution (CLSI)", "format": "cell-based, Pseudomonas aeruginosa", "details": "P. aeruginosa AB93066, Gram-negative, 96-well", "protocol": "as §1, §2"}, "human red blood cells": {"test_system": "human red blood cells", "assay": "Hemolytic activity", "format": "cell-based", "details": "37 °C, 1 h, absorbance at 570 nm, positive control 0.1% Triton X-100, method of Käber modified by Achmarine", "protocol": "Figure 1 Screening, antimicrobial and hemolytic activities of Kn2-7 in vitro. (A) Multiple alignments of Kn2-7 and its seven derivatives. (B) Predicted secondary structure of Kn2-7 and its seven derivatives. (C) Antibacterial activity screening of Kn2-7 and its seven derivative peptides. (D) Hemolytic activity of Kn2-7. The hemolytic activities of the Kn2-7 and BmKn2 peptides were estimated by monitoring the increase in the absorbance at 570 nm after incubating human red blood cells with different peptide concentrations at 37 °C for 1 h. The positive control was 0.1% Triton X-100, and 0.85% saline was used as a blank. […] It is read as >100 for BmKn2, Kn2-3 and Kn2-4, and as 100 for Kn2-1, Kn2-2, Kn2-5 and Kn2-6.\nThe hemolytic activities of Kn2-7 and BmKn2 peptides were tested against human red blood cells. HC50 values were obtained according to the method of Käber, modified by Achmarine. Saline solution at a concentration of 0.85% was used as the negative control, and 0.1% Triton X-100 was used as the positive control."}, "P. aeruginosa A093085": {"test_system": "P. aeruginosa A093085", "assay": "MIC, broth microdilution (CLSI)", "format": "cell-based, Pseudomonas aeruginosa", "details": "P. aeruginosa A093085, clinical isolate", "protocol": "(§3) Clinical isolated Pseudomonas aeruginosa strains A092994, A093052, A093056, A093085 and A093115 were obtained from Hubei Maternal and Child Health Hospital.\nas §2"}, "P. aeruginosa A093052": {"test_system": "P. aeruginosa A093052", "assay": "MIC, broth microdilution (CLSI)", "format": "cell-based, Pseudomonas aeruginosa", "details": "P. aeruginosa A093052, clinical isolate", "protocol": "as §3, §2"}, "P. aeruginosa A093056": {"test_system": "P. aeruginosa A093056", "assay": "MIC, broth microdilution (CLSI)", "format": "cell-based, Pseudomonas aeruginosa", "details": "P. aeruginosa A093056, clinical isolate", "protocol": "as §3, §2"}, "P. aeruginosa A093115": {"test_system": "P. aeruginosa A093115", "assay": "MIC, broth microdilution (CLSI)", "format": "cell-based, Pseudomonas aeruginosa", "details": "P. aeruginosa A093115, clinical isolate", "protocol": "as §3, §2"}, "P. aeruginosa A092994": {"test_system": "P. aeruginosa A092994", "assay": "MIC, broth microdilution (CLSI)", "format": "cell-based, Pseudomonas aeruginosa", "details": "P. aeruginosa A092994, clinical isolate", "protocol": "as §3, §2"}, "M. luteus AB93113": {"test_system": "M. luteus AB93113", "assay": "MIC, broth microdilution (CLSI)", "format": "cell-based, Micrococcus luteus", "details": "M. luteus AB93113, Gram-positive, 96-well", "protocol": "as §1, §2"}, "Biolayer interferometry": {"assay": "Biolayer interferometry", "format": "binding, E. coli", "details": "10 µg/mL biotinylated peptide on biosensor tips, 500 µg/mL LPS, 10 mM HEPES pH 7.4, 0.14 M NaCl, 30°C", "protocol": "Figure 7 Binding assay of Kn2-7 and LTA or LPS. (A) Interaction of 10 µg/ml of Kn2-7 with 500 µg/ml of LPS or 500 µg/mL of LTA. Curve A3 is LPS, curve B3 is LTA and curve C3 is buffer. (B) Interaction of 10 µg/mL of BmKn2 with 500 µg/mL of LPS or 500 µg/mL of LTA. Curve D3 is LPS, curve E3 is LTA and curve F3 is the buffer. (C) MICs of Kn2-7 and BmKn2 treated with LTA or LPS against S. aureus and E. coli.\nBiolayer Interferometry (BLI) experiments were performed on OCT RED (FortéBio, Inc.). A total of 500 µg/mL of lipoteichoic acid from S. aureus (LTA, Sigma, L2515), lipopolysaccharides from E. coli (LPS, Sigma, L2880) or buffer (10 mM HEPES, pH 7.4 and 0.14 M NaCl) was dispensed into 96-well microtiter plates at a volume of 200 µl per well. The operating temperature was 30°C. Biosensor tips (FortéBio, Inc., Menlo Park, CA) were pre-wetted with the buffer for 60 seconds at baseline. Then, 10 µg/mL Biotin-Kn2-7 or Biotin-BmKn2 was loaded onto the biosensor tips for 900 seconds. Baseline 2 was subsequently established for 300 seconds. Dissociation of Kn2-7 or BmKn2 occurred for 900 seconds in the buffer. Data were generated automatically by the Octet® User Software (version 3.1) and were subsequently analyzed from the resultant text files using Excel 2000."}, "S. aureus AB94004": {"test_system": "S. aureus AB94004", "assay": "Transmission electron microscopy", "format": "cell-based", "details": "1×MIC, treated for 2 min, semi-thin sections", "protocol": "(§4) Figure 6 Transmission electron microscopy of S. aureus and E. coli treated with Kn2-7. (A) Transmission electron microscopy was performed with Kn2-7-treated S. aureus. (A1), (A2) and (A3) were negative controls. (A4), (A5) and (A6) show S. aureus treated with Kn2-7 for 2 min. (A7), (A8) and (A9) show S. aureus treated with BmKn2 for 2 min. (B) Transmission electron microscopy was performed with Kn2-7-treated E. coli. (B1), (B2) and (B3) were the negative controls. (B4), (B5) and (B6) show E. coli treated with Kn2-7 for 2 min. (B7), (B8) and (B9) show E. coli treated with BmKn2 for 2 min.\n(§5) Overnight-cultured S. aureus AB94004 and E. coli AB94012 were transferred to LB medium and cultured to the exponential phase. A 200 µl aliquot of the peptide solution was added to 800 µl of the bacterial suspensions at the final concentration of 1×MIC. The samples were cut into semi-thin sections. Microscopy was performed using a HITACHI H-8100 Transmission Electron Microscope."}, "E. coli AB94012 [2]": {"test_system": "E. coli AB94012", "assay": "Transmission electron microscopy", "format": "cell-based", "details": "E. coli AB94012, 1×MIC, treated for 2 min, semi-thin sections", "protocol": "as §4, §5"}}, "note": "Ends that are not written are not given here.", "data": [{"substance": "FIGAIARLLSKIF-NH2 [BmKn2]", "values": [{"measurement": "MIC", "setting": "B. thuringiensis AB92037", "value": 12.5, "unit": "µg/mL"}, {"measurement": "MIC", "setting": "E. coli AB94012 [1]", "value": ">100", "unit": "µg/mL"}, {"measurement": "MIC", "setting": "P. aeruginosa AB93066", "value": 50, "unit": "µg/mL"}, {"measurement": "HC50 (hemolytic activity)", "setting": "human red blood cells", "value": 17.13, "unit": "µg/mL"}, {"measurement": "MIC", "setting": "P. aeruginosa A093085", "value": ">100", "unit": "µg/mL"}, {"measurement": "MIC", "setting": "P. aeruginosa A093052", "value": ">100", "unit": "µg/mL"}, {"measurement": "MIC", "setting": "P. aeruginosa A093056", "value": ">100", "unit": "µg/mL"}, {"measurement": "MIC", "setting": "P. aeruginosa A093115", "value": ">100", "unit": "µg/mL"}, {"measurement": "MIC", "setting": "P. aeruginosa A092994", "value": ">100", "unit": "µg/mL"}, {"measurement": "MIC", "setting": "M. luteus AB93113", "value": 6.25, "unit": "µg/mL"}]}, {"substance": "FIKRIARLLRKIF [Kn2-7]", "values": [{"measurement": "Binding to LPS (BLI)", "setting": "Biolayer interferometry", "value": "able to bind to LPS"}, {"measurement": "Structural changes of cell wall and membrane (TEM)", "setting": "S. aureus AB94004", "value": "disrupted immediately"}, {"measurement": "Structural changes of cell wall and membrane (TEM)", "setting": "E. coli AB94012 [2]", "value": "formed microspheres that surrounded the bacteria"}]}]}
